Test results from patent publication US6596703B1, “Promotion of wound healing utilizing steroids having reduced deteriorous systemic side effects typical of glucocorticoids, mineralocorticoids and sex steroids” (Jagotec AG, priority 1997, dated 2003).
Entries after “also recorded” stand apart in the source; their conditions may differ. Where two headings read alike, the source gives them in different places.

How the values were obtained:
[1] = tested on: murine chronic granulomatous air pouch; experiment: Inflammation-induced angiogenesis in the murine chronic granulomatous air pouch, s.c. dosing from induction (day 0) to day 6; type: in vivo, mice; details: for Vascular Index: mean ± s.e.m.; for angiostatic action: administered alone s.c. 1 mg/kg, no heparin, prophylactic dosing (Tables 1, 2)
Experimental: (§1) Chronic granulomatous air pouches were raised in mice by known methods (the reader is referred to PCT/CA94/00207 at page 16 for an experimental method in this regard) utilizing 0.5 ml Freund's Complete adjuvant with 0.1% croton oil injected into 1 day old air pouches. Animals were dosed with saline/0.01% DMSO either subcutaneously (s.c.) into the nape of the neck, or with saline applied topically in 0.1 ml 2.5% hyaluronan. Vascular casts incorporating carmine in gelatin were formed at termination, the tissues weighed dry (mg), papain digested, and the carmine content (μg) determined by spectrophotometric assay. Vascularity was calculated as the Vascularity Index (μg/mg). Results are expressed as means±s.e.m.
Investigation of the action of tetrahydrocortisol, tetrahydrocortisone and tetrahydrocortexolone and the like on inflammation-induced angiogenesis in the murine chronic granulomatous air pouch was pursued. Groups of mice (n=8-13) were dosed with tetrahydrocortisol, tetrahydrocortisone or tetrahydrocortexolone or the like (0.1-3.0 mg/kg in 0.1 ml saline/0.01% DMSO, s.c) daily from induction (day 0) to termination on day 6. Controls were dosed with 0.1 ml saline/0.01% DMSO subcutaneously.
Investigation of the action of angiostatic and anti-inflammatory steroids on inflammation-induced angiogenesis in the murine chronic granulomatous air pouch was pursued. Groups of mice (n=8-13) were treated with the steroids at 1.0 mg/kg (0.1 ml saline/0.01% DMSO, s.c), except of dexamethasone at (0.2 mg/kg), daily from the day of induction (day 0) to termination on day 6. Controls were given 0.1 ml saline/0.01% DMSO s.c. (Key: Tetrahydrocortisol (TH-F), Tetrahydrocortisone (TH-E).

[2] = tested on: murine chronic granulomatous air pouch; details: s.c. at 1 mg/kg; reference (1); cited from earlier work
[3] = tested on: established 7-day old vasculature of the murine chronic granulomatous air pouch; experiment: Established 7-day old vasculature of the murine chronic granulomatous air pouch, s.c. dosing from day 7 to day 14 or 21; type: in vivo, mice; details: for Vascular Index: Table 3
Experimental: as §1
Investigation of the action of tetrahydrocortisol, tetrahydrocortisone and tetrahydrocortexolone and the like on the established 7-day old vasculature of the murine chronic granulomatous air pouch was pursued. Groups of mice were dosed with tetrahydrocortisol, tetrahydrocortisone or tetrahydrocortexolone or the like (0.1-3.0 mg/kg in 0.1 ml saline/0.01% DMSO, s.c) daily from day 7 to termination at day 14 or day 21. Controls were dosed with 0.1 ml saline (0.01% DMSO alone).

[4] = tested on: murine chronic granulomatous air pouch; experiment: Inflammatory-induced angiogenesis in the murine chronic granulomatous air pouch, topical application in 2.5% hyaluronan; type: in vivo, mice; details: for effect on angiogenesis: topical application (1 mg/kg) in 2.5% hyaluronan; for Vascular Index: 0.1 ml 2.5% hyaluronan alone topically daily day 0 to day 6
Experimental: as §1
Investigation of the action of topical tetrahydrocortisol, tetrahydrocortisone, tetrahydrocortexolone and the like on inflammatory-induced angiogenesis in the murine chronic granulomatous air pouch was pursued. Groups of mice (n=8-13) were depilated and the inflammation induced 4 days later. Tetrahydrocortisol (TH-F) and tetrahydrocortisone (TH-E) were applied topically (1 mg/kg) in 2.5% hyaluronan (0.1 ml) daily from the day of induction (day 0) to termination (day 6). Controls were dosed with 0.1 ml 2.5% hyaluronan alone.
Investigation of the action of topical tetrahydrocortisol, tetrahydrocortisone and tetrahydrocortexolone and the like on inflammatory-induced angiogenesis in the murine chronic granulomatous air pouch was pursued. Groups of mice (n=8-13) were depilated and the inflammation induced 4 days later. Tetrahydrocortisol (TH-F) was applied topically with 2.5% hyaluronan (0.1 ml of composition 0.1-1.0 mg of tetrahydrocortisol/kg) by weight daily from the day of induction (day 0) to termination (day 6). Controls were dosed with 0.1 ml 2.5% hyaluronan alone.

[5] = Table 2, 1.0 mg/kg s.c. daily day 0 to day 6
[6] = Table 1, 1 mg/kg s.c. daily day 0 to day 6

heparin
Vascular Index ([1]; Table 1, 1000 U p.o.): 7.93 ± 0.83 µg/mg

C[C@]12CCC(O)C[C@H]1CC[C@@H]1[C@@H]2C(=O)C[C@@]2(C)[C@H]1CC[C@]2(O)C(=O)CO (some centres unmarked) [TH-E, 5-pregnane-3,17,21-triol-11,20-dione]
effect on angiogenesis [2]: capable of inhibiting angiogenesis
Vascular Index [1, 5]: 18.860 ± 1.830 µg/mg
angiostatic action [1]: without effect
Vascular Index ([3]; 0.1 mg/kg s.c. daily from day 7, termination Day 14): 18.18 ± 1.97 µg/mg
Vascular Index ([3]; 0.1 mg/kg s.c. daily from day 7, termination Day 21): 18.59 ± 1.84 µg/mg
Vascular Index ([3]; 0.3 mg/kg s.c. daily from day 7, termination Day 14): 20.38 ± 1.91 µg/mg
Vascular Index ([3]; 0.3 mg/kg s.c. daily from day 7, termination Day 21): 31.33 ± 2.91 µg/mg
Vascular Index ([3]; 1.0 mg/kg s.c. daily from day 7, termination Day 14): 22.49 ± 3.77 µg/mg
Vascular Index ([3]; 1.0 mg/kg s.c. daily from day 7, termination Day 21): 25.75 ± 2.40 µg/mg
Vascular Index ([3]; 3.0 mg/kg s.c. daily from day 7, termination Day 14): 18.87 ± 1.29 µg/mg
Vascular Index ([3]; 3.0 mg/kg s.c. daily from day 7, termination Day 21): 25.91 ± 1.85 µg/mg
angiostatic action ([3]; s.c., no heparin, therapeutic dosing (Table 3)): without effect
effect on angiogenesis ([4]; listed as tetrahydrocortisone): significant acceleration of angiogenesis; also recorded: Definite angiogenesis action

C[C@]12CCC(=O)C=C1CC[C@@H]1[C@@H]2C(=O)C[C@@]2(C)[C@H]1CC[C@]2(O)C(=O)CO [Cortisone, cortisone]
Vascular Index [1, 6]: 8.23 ± 0.62 µg/mg
angiostatic action [1]: inactive
effect on angiogenesis [4]: angiostatic

hyaluronan [HA]
Vascular Index ([4]; Table 4): 11.180 ± 1.980 µg/mg
Vascular Index ([4]; Table 5): 11.180 ± 1.98 µg/mg

C[C@]12CC[C@@H](O)C[C@H]1CC[C@@H]1[C@@H]2CC[C@@]2(C)[C@H]1CC[C@]2(O)C(=O)CO [TH-S, tetrahydrocortexolone]
effect on angiogenesis [2]: capable of inhibiting angiogenesis

C[C@]12CCC(O)CC1CC[C@@H]1[C@@H]2C(O)C[C@@]2(C)[C@H]1CC[C@]2(O)C(=O)CO (some centres unmarked) [TH-F, 5-pregnane-3,11,17,21-tetrol-20-one]
effect on angiogenesis [2]: capable of inhibiting angiogenesis
Vascular Index [1, 6]: 5.29 ± 0.61 µg/mg
Vascular Index [1, 5]: 13.088 ± 1.630 µg/mg
angiostatic action [1]: decrease in vascularity
effect on angiogenesis ([4]; listed as tetrahydrocortisol): significant acceleration of angiogenesis; also recorded: Definite angiogenesis action
dose relation of acceleration of angiogenesis ([4]; topical in 2.5% hyaluronan, 0.1-1.0 mg/kg (Table 5)): dose related
